# Test results from US20040116436A1, “Treatment of dementia and parkinson's disease” (priority 2002, published 2004).
# Read-outs that look alike come from different tables or passages of the source.
# Columns and labels:
# [1] = Source text: 30 C57B1/B6 type mice (8-12 weeks old) are allowed to acclimate for 12-14 days before experimental use.
# alpha 1A receptor = alpha 1A receptor (Homo sapiens, UniProt P35348); settings: RSAT assay; alpha 2 subtypes versus alpha 1A
# [2] = tested on: dopaminergic neurons in the substantia nigra
# [3] = tested on: dopaminergic neurons in the ventral tegmental area; settings: MPTP mice; brimonidine 3 mg/kg/day
# alpha 2B receptor = alpha 2B receptor (Homo sapiens, UniProt P18089); assay: cell-based
# Source text: (§1) In contrast, a method for measuring alpha receptor agonist selectivity comprises the RSAT (Receptor Selection and Amplification Technology) assay as reported in Messier et al., High Throughput Assays Of Cloned Adrenergic, Muscarinic, Neurokinin And Neurotrophin Receptors In Living Mammalian Cells, Pharmacol. Toxicol. 76:308-11 (1995) and has been adapted for use with alpha 2 receptors. This publication is incorporated by reference herein. The assay measures a receptor-mediated loss of contact inhibition that results in selective proliferation of receptor-containing cells in a mixed population of confluent cells. The increase in cell number is assessed with an appropriate transfected marker gene such as b-galactosidase, the activity of which can be easily measured in a 96-well format. Receptors that activate the G protein, Gq, elicit this response. Alpha2 receptors, which normally couple to Gi, activate the RSAT response when coexpressed with a hybrid Gq protein that has a Gi receptor recognition domain, called Gq/i5^2. See Conklin et al., Substitution Of Three Amino Acids Switches Receptor Specificity Of Gqa To That Of Gia, Nature 363:274-6. (1993) This reference is hereby incorporated by reference herein.
# (§2) The data presented below was collected using the RSAT assay described above.
# (§3) Efficacy of a given receptor or receptor subtype in accordance with the present invention is determined using the RSAT assay procedure described above.
# alpha 2C receptor = alpha 2C receptor (Homo sapiens, UniProt P18825); assay: cell-based
# Source text: as §1, §2, §3
# [4] = in vivo, ip
Compound,"Open Field activity versus vehicle + MPTP group ([1]; 10 and 30 days post MPTP, brimonidine 3 mg/kg/day)","forelimb extension impairment, tail hang test ([1]; during the period that the compound is administered)","forelimb extension impairment, tail hang test ([1]; post-dosing (after 14 days of compound administration))",greater activity at each alpha 2 receptor subtype than at the alpha 1A receptor (alpha 1A receptor),"neuron loss in the substantia nigra versus MPTP-treated animals ([2]; MPTP mice, brimonidine 3 mg/kg/day)","Average Neuron Count (statistical error) ([2]; substantia nigra, TH-labeled neurons, 55-60 days post MPTP 40 mg/kg sc, brimonidine 3 mg/kg/day sc mini-pump 14 days)",reduction of MPTP-induced neuron loss in the Ventral Tegmental area [3],EC50 (alpha 2B receptor) [nM],EC50 (alpha 2C receptor) [nM],concentration at which sedative effect first becomes noticeable [4]
"Brc1c(NC2=NCCN2)ccc2nccnc12 [Brimonidine, brimonidine]",no significant difference between this group and the vehicle group,does not reduce this impairment,does tend to reduce the impairment,at least 5.5 fold,significantly less neuron loss,32 (±1),about 10%,,,
"Cc1cccc([C@H](C)c2cnc[nH]2)c1C [Dexmedetomidine, dexmedetomidine]",,,,,,,,2,1,
"Clc1ccc2nsnc2c1NC1=NCCN1 [Tizanidine, tizanidine]",,,,,,,,127,1690,about 100 micrograms/kg
